Source: patent US20250296960A1, “PEPTIDE COMPOSITIONS AND METHODS OF USE THEREOF” (priority 2022, published 2025)
Read-outs that look alike come from different tables or passages of the source. Numbered stars: 1 amine (or outer) side, 2 acyl side, 3 side chain; on linkers, the order of the positions; unused ones are H or OH. Square brackets hold non-standard residues; d marks the D form. Side chains are listed from the residue outwards. Peptide text beside a SMILES is read from it. * marks the point of attachment. Biotin = O=C1N[C@H]2[C@H](CS[C@H]2CCCCC(=O)*)N1; C18 diacid = O=C(O)CCCCCCCCCCCCCCCCC(=O)*; γGlu = O=C(O)[C@H](CCC(=O)[*:2])N[*:1]; AEEA = NCCOCCOCC(=O)O; Aib = CC(C)(N)C(=O)O

Tests used:
[1] = In vitro enzymatic stability against FaSSIF/P (pancreatin in FaSSIF, pH 6.5); assay type: in vitro ADME; details: simulated gi fluid
human GIPR = target: T1, human GIPR (Homo sapiens, UniProt P48546); experiment: cAMP assay (HitHunter cAMP) in GIPR-expressing CHO-K1 cells (GIPR+ cells); assay type: cell-based
T1 construct: host or cells: CHO-K1
T1 sequence (P48546 22-466): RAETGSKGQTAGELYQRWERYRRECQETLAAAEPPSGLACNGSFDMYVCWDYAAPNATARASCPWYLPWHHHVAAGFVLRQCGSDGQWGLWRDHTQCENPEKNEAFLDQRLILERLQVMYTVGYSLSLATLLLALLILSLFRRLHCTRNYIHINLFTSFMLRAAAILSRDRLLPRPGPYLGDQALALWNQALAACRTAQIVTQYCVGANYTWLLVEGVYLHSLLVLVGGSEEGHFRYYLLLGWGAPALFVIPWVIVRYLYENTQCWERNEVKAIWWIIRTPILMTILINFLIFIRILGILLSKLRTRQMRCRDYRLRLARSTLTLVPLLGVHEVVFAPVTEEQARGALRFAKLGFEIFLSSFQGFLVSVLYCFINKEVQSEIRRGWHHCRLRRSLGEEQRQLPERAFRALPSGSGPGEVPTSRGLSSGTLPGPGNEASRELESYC
Summary of the method: (§1)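 CHO-K1 cells expressing each receptor were plated overnight, then treated with peptide in cAMP assay buffer for 30 min at 37 °C. cAMP was detected by antibody plus detection solution (1 h) and Solution A (3 h), both at room temperature in the dark. Luminescence was the read-out.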

[2] = assay type: in vitro ADME; details: pH 7.8
Experimental: (§2) For the stability against trypsin, the test samples were prepared by mixing stock solutions of peptide and trypsin dissolved in 50 mM PBS (pH 7.8) containing 0.02% PS80 in a weight ratio of 10:1. The test samples were incubated at 37° C. for 180 min. The sampling from test samples was proceeded at the predetermined time points (10, 30, 60, 90, 120, and 180 min) and stopped by 10% TFA solution.
(§3) Analytical HPLC was performed to determine the remaining amount on an ACQUITY Premier system (Waters, USA) with an ACQUITY CSH C18 column (Waters, USA) at 35° C. using 0.1% TFA in water and acetonitrile. The remaining amount was determined as a percentage of the peak area at the sampling time point relative to the peak area of the initial sample.

trypsin = assay type: in vitro ADME
Experimental: as §2, §3

human GCGR = target: T2, human GCGR (Homo sapiens, UniProt P47871); experiment: cAMP assay (HitHunter cAMP) in GCGR-expressing CHO-K1 cells (GCGR+ cells); assay type: cell-based
T2 construct: host or cells: CHO-K1
T2 sequence (P47871 26-477): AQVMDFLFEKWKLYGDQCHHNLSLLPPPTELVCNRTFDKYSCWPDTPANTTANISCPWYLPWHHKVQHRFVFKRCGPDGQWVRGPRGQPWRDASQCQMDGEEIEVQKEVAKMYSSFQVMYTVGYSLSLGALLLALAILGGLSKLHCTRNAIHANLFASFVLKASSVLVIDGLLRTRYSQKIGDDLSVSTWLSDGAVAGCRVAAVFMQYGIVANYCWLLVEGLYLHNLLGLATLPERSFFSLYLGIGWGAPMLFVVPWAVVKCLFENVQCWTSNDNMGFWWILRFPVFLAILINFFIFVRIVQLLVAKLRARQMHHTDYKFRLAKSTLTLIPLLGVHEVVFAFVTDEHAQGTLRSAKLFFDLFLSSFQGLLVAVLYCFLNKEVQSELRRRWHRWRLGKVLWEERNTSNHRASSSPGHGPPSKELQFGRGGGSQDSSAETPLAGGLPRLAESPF
Summary of the method: as §1

human GLP-1R = target: T3, human GLP-1R (Homo sapiens, UniProt P43220); experiment: cAMP assay (HitHunter cAMP) in GLP-1R-expressing CHO-K1 cells (GLP-1R+ cells); assay type: cell-based
T3 construct: host or cells: CHO-K1
T3 sequence (P43220 24-463): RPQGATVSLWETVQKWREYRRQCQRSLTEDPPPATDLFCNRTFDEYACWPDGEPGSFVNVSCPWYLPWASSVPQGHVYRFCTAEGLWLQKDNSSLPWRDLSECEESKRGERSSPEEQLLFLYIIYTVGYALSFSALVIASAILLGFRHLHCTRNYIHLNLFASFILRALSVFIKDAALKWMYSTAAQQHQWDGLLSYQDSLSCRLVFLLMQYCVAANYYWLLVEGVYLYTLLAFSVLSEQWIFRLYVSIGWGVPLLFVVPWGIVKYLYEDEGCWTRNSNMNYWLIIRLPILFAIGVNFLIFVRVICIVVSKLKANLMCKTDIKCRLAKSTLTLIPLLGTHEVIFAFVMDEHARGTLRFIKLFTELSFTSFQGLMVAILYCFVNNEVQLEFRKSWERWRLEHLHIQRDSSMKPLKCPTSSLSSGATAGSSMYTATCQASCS
Summary of the method: as §1

FaSSIF/P = experiment: In vitro enzymatic stability against FaSSIF/P (pancreatin in FaSSIF, pH 6.5); assay type: in vitro ADME
[3] = Body weight loss in high fat diet (HFD) mice, 2 weeks; assay type: in vivo; details: 20 nmol/kg s.c. Q2D
Experimental: This study was conducted to confirm the body weight loss effect and select the peptides to be evaluated in high fat diet (HFD) treated mouse, which is widely used as experimental animal model in obesity and diabetes studies. SEQ ID NOs. The peptides were delivered at 0.02% PS80 in PBS and dosing volume was 10 mL/kg. Body weight changes, blood glucose, and food intake were monitored Q2D. Animals were fasted at least 4 hours prior to blood glucose measurement.

[4] = Intestinal absorption / PK after intraduodenal administration of oral formulation in rats, serum LC-MS/MS; details: rat, in vivo
[5] = In vivo efficacy in mAMLN (obese and NASH) mice, 4 weeks; details: after 4 weeks

## CSCC[C@H](NC(=O)[C@H](Cc1ccc(O)cc1)NC(=O)[C@H](CC(=O)O)NC(=O)[C@H](CC(C)C)NC(=O)[C@H](CC(C)C)NC(=O)[C@H](CCCCNC(=O)COCCOCCNC(=O)COCCOCCNC(=O)CC[C@H](NC(=O)CCCCCCCCCCCCCCCCC(=O)O)C(=O)O)NC(=O)[C@H](CO)NC(=O)[C@H](Cc1ccc(O)cc1)NC(=O)[C@H](CC(=O)O)NC(=O)[C@H](CO)NC(=O)[C@@H](NC(=O)[C@H](Cc1ccccc1)NC(=O)[C@@H](NC(=O)CNC(=O)[C@H](CCC(N)=O)NC(=O)C(C)(C)NC(=O)[C@@H](N)Cc1ccc(O)cc1)[C@@H](C)O)[C@@H](C)O)C(=O)N[C@@H](CCSC)C(=O)N[C@@H](CCC(N)=O)C(=O)N[C@@H](CCC(N)=O)C(=O)N[C@@H](CC(=O)O)C(=O)N[C@@H](Cc1ccccc1)C(=O)N[C@H](C(=O)N[C@@H](CCC(N)=O)C(=O)N[C@@H](Cc1c[nH]c2ccccc12)C(=O)N[C@@H](CC(C)C)C(=O)N[C@@H](CC(C)C)C(=O)N[C@@H](CCC(=O)O)C(=O)NCC(=O)NCC(=O)N1CCC[C@H]1C(=O)N[C@@H](CO)C(=O)N[C@@H](CO)C(=O)NCC(=O)N[C@@H](C)C(=O)N1CCC[C@H]1C(=O)N1CCC[C@H]1C(=O)N1CCC[C@H]1C(=O)N[C@@H](CO)C(N)=O)C(C)C [compound 100] (H-Y[Aib]QGTFTSDYSK([AEEA-AEEA-γGlu-C18 diacid])LLDYMMQQDFVQWLLEGGPSSGAPPPS-NH2; N-terminus assumed)
[1]; pH 6.5, Half-life (min), FaSSIF/P
  half-life: 45.2 min
Human GIPR; Example 13
  activity on GIPR compared to SEQ ID NO. 77, in words: decreased
Human GIPR; Table 36
  Ratio vs. GLP-1R, GIPR: 103
  Relative % to native ligand, GIPR: 55%
[2]
  half-life: > 434 min
trypsin
  stability against trypsin compared with SEQ ID NO. 77, in words: increased half-lives
Human GCGR; Table 36
  Ratio vs. GLP-1R, GCGR: 56
  Relative % to native ligand, GCGR: 30%
Human GLP-1R; Example 13
  activity on GLP-1R compared to SEQ ID NO. 77, in words: decreased
Human GLP-1R; Table 36
  Ratio vs. GLP-1R, GLP-1R: 100
  Relative % to native ligand, GLP-1R: 54%

## CSCC[C@H](NC(=O)[C@H](Cc1ccc(O)cc1)NC(=O)[C@H](CC(=O)O)NC(=O)[C@H](CC(C)C)NC(=O)[C@H](CC(C)C)NC(=O)[C@H](CCCCNC(=O)COCCOCCNC(=O)COCCOCCNC(=O)CC[C@H](NC(=O)CCCCCCCCCCCCCCCCC(=O)O)C(=O)O)NC(=O)[C@H](CO)NC(=O)[C@H](Cc1ccc(O)cc1)NC(=O)[C@H](CC(=O)O)NC(=O)[C@H](CO)NC(=O)[C@@H](NC(=O)[C@H](Cc1ccccc1)NC(=O)[C@@H](NC(=O)CNC(=O)[C@H](CCC(N)=O)NC(=O)C(C)(C)NC(=O)[C@@H](N)Cc1ccc(O)cc1)[C@@H](C)O)[C@@H](C)O)C(=O)N[C@@H](CCSC)C(=O)N[C@@H](CCC(N)=O)C(=O)N[C@@H](CCCNC(=N)N)C(=O)N[C@@H](CC(=O)O)C(=O)N[C@@H](Cc1ccccc1)C(=O)N[C@H](C(=O)N[C@@H](CCC(N)=O)C(=O)N[C@@H](Cc1c[nH]c2ccccc12)C(=O)N[C@@H](CC(C)C)C(=O)N[C@@H](CC(C)C)C(=O)N[C@@H](CCC(=O)O)C(=O)NCC(=O)NCC(=O)N1CCC[C@H]1C(=O)N[C@@H](CO)C(=O)N[C@@H](CO)C(=O)NCC(=O)N[C@@H](C)C(=O)N1CCC[C@H]1C(=O)N1CCC[C@H]1C(=O)N1CCC[C@H]1C(=O)N[C@@H](CO)C(=O)N[C@@H](CCCCNC(=O)CCCC[C@@H]1SC[C@@H]2NC(=O)N[C@@H]21)C(N)=O)C(C)C [compound 90] (H-Y[Aib]QGTFTSDYSK([AEEA-AEEA-γGlu-C18 diacid])LLDYMMQRDFVQWLLEGGPSSGAPPPSK(Biotin)-NH2; N-terminus and C-terminus assumed)
[1]; pH 6.5, Half-life (min)
  half-life: 42.1 min
FaSSIF/P
  intestinal stability in FaSSIF/P compared with SEQ ID NO. 77, in words: not inferior to that of SEQ ID No. 77
[3]
  body weight loss effect compared to SEQ ID NO. 77, in words: comparable to SEQ ID NO. 77
Human GIPR; Table 31
  Ratio vs. GLP-1R, GIPR: 311
  Relative % to native ligand, GIPR: 154%
[4]
  AUC(0-inf): 2490 ng·h/mL
  Cmax: 282 ng/mL
  half-life: 502 min
  time at which Cmax was reached: 0.30 h
Human GCGR; Table 31
  Ratio vs. GLP-1R, GCGR: 39
  Relative % to native ligand, GCGR: 19%
Human GLP-1R; Table 31
  Ratio vs. GLP-1R, GLP-1R: 100
  Relative % to native ligand, GLP-1R: 50%

## CSCC[C@H](NC(=O)[C@H](Cc1ccc(O)cc1)NC(=O)[C@H](CC(=O)O)NC(=O)[C@H](CC(C)C)NC(=O)[C@H](CC(C)C)NC(=O)[C@H](CCCCNC(=O)COCCOCCNC(=O)COCCOCCNC(=O)CC[C@H](NC(=O)CCCCCCCCCCCCCCCCC(=O)O)C(=O)O)NC(=O)[C@H](CO)NC(=O)[C@H](Cc1ccc(O)cc1)NC(=O)[C@H](CC(=O)O)NC(=O)[C@H](CO)NC(=O)[C@@H](NC(=O)[C@H](Cc1ccccc1)NC(=O)[C@@H](NC(=O)CNC(=O)[C@H](CCC(N)=O)NC(=O)C(C)(C)NC(=O)[C@@H](N)Cc1ccc(O)cc1)[C@@H](C)O)[C@@H](C)O)C(=O)N[C@@H](CCSC)C(=O)N[C@@H](CCC(N)=O)C(=O)N[C@@H](CCCNC(=N)N)C(=O)N[C@@H](CC(=O)O)C(=O)N[C@@H](Cc1ccccc1)C(=O)N[C@H](C(=O)N[C@@H](CCCCNC(=O)CCCC[C@@H]1SC[C@@H]2NC(=O)N[C@@H]21)C(=O)N[C@@H](Cc1c[nH]c2ccccc12)C(=O)N[C@@H](CC(C)C)C(=O)N[C@@H](CC(C)C)C(=O)N[C@@H](CCC(=O)O)C(=O)NCC(=O)NCC(=O)N1CCC[C@H]1C(=O)N[C@@H](CO)C(=O)N[C@@H](CO)C(=O)NCC(=O)N[C@@H](C)C(=O)N1CCC[C@H]1C(=O)N1CCC[C@H]1C(=O)N1CCC[C@H]1C(=O)N[C@@H](CO)C(N)=O)C(C)C [compound 89] (H-Y[Aib]QGTFTSDYSK([AEEA-AEEA-γGlu-C18 diacid])LLDYMMQRDFVK(Biotin)WLLEGGPSSGAPPPS-NH2; N-terminus and C-terminus assumed)
[5]
  hepatic steatosis (histological score), in words: significantly reduced
[1]; pH 6.5, Table 33, peptide:pancreatin weight ratio 25:1, FaSSIF pH 6.5, 37° C., read-out: Half-life
  half-life: 43 min
FaSSIF/P; Example 11
  intestinal stability in FaSSIF/P compared with SEQ ID NO. 77, in words: not inferior to that of SEQ ID No. 77
[3]
  body weight loss effect compared to SEQ ID NO. 77, in words: comparable to SEQ ID NO. 77
Human GIPR; Table 31
  Ratio vs. GLP-1R, GIPR: 399
  Relative % to native ligand, GIPR: 154%
[4]; rats, single intraduodenal (ID) administration, read-out: AUCinf
  AUC(0-inf): 2790 ng·h/mL
[4]; rats, single intraduodenal (ID) administration, read-out: mean Cmax
  Cmax: 332 ng/mL
[4]; rats, single intraduodenal (ID) administration, read-out: t1/2 (converted)
  half-life: 434 min
Human GCGR; Table 31
  Ratio vs. GLP-1R, GCGR: 117
  Relative % to native ligand, GCGR: 45%
Human GLP-1R; Table 31
  Ratio vs. GLP-1R, GLP-1R: 100
  Relative % to native ligand, GLP-1R: 38%
